Measurements taken from article PMC8222713, “Variation of Two S3b Residues in KV4.1–4.3 Channels Underlies Their Different Modulations by Spider Toxin κ-LhTx-1” (Frontiers in Pharmacology, 2021).
Where a SMILES comes first, the peptide text is derived from it. Bridges are numbered along the chain shown (N, C = ends).

How the values were obtained:
[1] = tested on: KV1.5 channel (hKV1.5); assay: Whole-cell patch clamp selectivity, KV1.5; assay type: cell-based, human; conditions: KV1.5, 10 µM, n = 5
Description: (§1) The cDNA of hKV1.1, hKV1.3, rKV1.4, hKV1.5, rKV2.1, hKV3.1–3.4, mKV4.1, rKV4.2, and rKV4.3 were subcloned in the eukaryotic expression vector pCDNA3.1 or pCMV-blank. Channel mutants were made by a site-directed mutation method. Briefly, a pair of oppositely directed primers with 15 bp overlap at their 5′ ends and the designed mutation site were used to amplify the parental channel plasmid, then the PCR mix was treated with DpnI to remove the template. 10 μL digestion mix was directly used to transform 100 μL DH5α chemical competent cells. The correct mutation made by this procedure was finally confirmed by DNA sequencing. […] 4–6 h after transfection, cells were seeded onto poly-lysine (PLL) coated coverslips, and 24–36 h later, transfected cells were ready for patch-clamp analysis. […]
(§2) Whole-cell patch clamp recording was performed in an electrophysiology platform equipped with MultiClamp 700B amplifier and Axon Digidata 1550 AD/DA convertor (Axon Instruments, Irvine, CA, United States). […] The whole cell conductance (G) at each depolarizing voltage (V) was determined using the equation: G = I/(V−Vrev), where I and Vrev represents the current amplitude and the reversal potential, respectively. In the present study, Vrev for K^+ current is determined to be −85.61 mV using the Nernst equation. […] Gating currents of KV4.1–4.3 channels were measured as previously reported ([Tilley et al., 2019]). […]

[2] = tested on: KV3.2 channel (hKV3.2); assay: Whole-cell patch clamp selectivity, KV3.2; assay type: cell-based, human; conditions: KV3.2, 10 µM, n = 5
Description: as §1, §2

[3] = tested on: KV4.1/280VMTN chimeric channel; assay: Whole-cell patch clamp, KV4.1/280VMTN chimera in CHO-K1 cells; assay type: cell-based, mouse; conditions: mean ± SEM
Description: (§3) The cDNA of hKV1.1, hKV1.3, rKV1.4, hKV1.5, rKV2.1, hKV3.1–3.4, mKV4.1, rKV4.2, and rKV4.3 were subcloned in the eukaryotic expression vector pCDNA3.1 or pCMV-blank. Channel mutants were made by a site-directed mutation method. Briefly, a pair of oppositely directed primers with 15 bp overlap at their 5′ ends and the designed mutation site were used to amplify the parental channel plasmid, then the PCR mix was treated with DpnI to remove the template. 10 μL digestion mix was directly used to transform 100 μL DH5α chemical competent cells. The correct mutation made by this procedure was finally confirmed by DNA sequencing. CHO-K1 cells (ATCC® CCL-61™) were grown in DMEM-F12 mixed medium (1:1) supplemented with 10% FBS and maintained in standard conditions (saturated humidity, 37°C, 5% CO2). Channel plasmid was co-transfected with pEGFP-N1 (encodes the green fluoresence protein) into CHO-K1 cells using lipofectamine 2000 following the manufacturer’s instructions. 4–6 h after transfection, cells were seeded onto poly-lysine (PLL) coated coverslips, and 24–36 h later, transfected cells were ready for patch-clamp analysis. It should be note that KV4.2 and its mutants were also co-expressed with hKChIP1 to promote their functional expressions.
(§4) Whole-cell patch clamp recording was performed in an electrophysiology platform equipped with MultiClamp 700B amplifier and Axon Digidata 1550 AD/DA convertor (Axon Instruments, Irvine, CA, United States). Data were acquired using the pClamp software (Axon Instruments, Irvine, CA, United States). All experiments were performed at room temperature. The bath solution contains (in mM): 140 NaCl, 5 KCl, 1 MgCl2, 2 CaCl2, 10 glucose, and 10 HEPES (pH = 7.3). The pipette solution contains (in mM): 140 KCl, 2.5 MgCl2, 11 EGTA, and 10 HEPES (pH = 7.3). Series resistance was kept below 10 MΩ and compensated to 80%. The concentration–response curves were fitted by a Hill logistic equation to estimate the potency (IC50) of the toxin. The whole cell conductance (G) at each depolarizing voltage (V) was determined using the equation: G = I/(V−Vrev), where I and Vrev represents the current amplitude and the reversal potential, respectively. In the present study, Vrev for K^+ current is determined to be −85.61 mV using the Nernst equation. G-V curve was obtained by plotting the normalized G as a function of V and fitted by the Boltzmann equation: y = 1/{1 + exp [(Va−V)/K]}, in which Va, V, and K represents half-maximum activation voltage, test voltage and slope factor, respectively. The steady-state fast inactivation of KV4 channels was measured using a classical two-pulses protocol: cell was held at −120 mV, and a train of conditional voltages (−120–40 mV, in 10 mV increment, 1,000 ms) were applied to induce channel inactivation, followed by a +60 mV test pulse (300 ms) to assess the proportion of non-inactivated channels; the sweep interval was set to 10 s. Currents at the test pulse (I) were normalized to the maximum value (Imax) and plotted as a function of the conditional voltage (V), the curve was fitted by the Boltzmann equation: I/Imax = A + (1−A)/{1 + exp [(V−Vh)/K]}, where Vh is the half-maximum inactivation voltage, A represents the minimum channel availability, and K is the slope factor. Gating currents of KV4.1–4.3 channels were measured as previously reported ([Tilley et al., 2019]). Briefly, the ionic pore currents were abolished by replacing K^+ with NMDG^+ in the pipette solution, and 10 µM Cs^+ was present in the bath solution to occupy the selectivity filter of KV channels to prevent decay of the gating currents during recording.
(§5) Data were presented as MEAN ± SEM, n represents the number of separate experimental cells. Data were analyzed using the software Clampfit 10.5 (Axon Instruments, Irvine, CA, United States), Graphpad Prism 5.01 (GraphPad Software, La Jolla, CA, United States) and Excel 2010 (Microsoft Corporation, Redmond, WA, United States). […]

[4] = tested on: KV1.1 channel (hKV1.1); assay: Whole-cell patch clamp selectivity, KV1.1; assay type: cell-based, human; conditions: KV1.1, 10 µM, n = 5
Description: as §1, §2

[5] = tested on: KV4.1/282TD (P282T/K283D double mutant); assay: Whole-cell patch clamp, KV4.1/282TD in CHO-K1 cells; assay type: cell-based, mouse
Description: as §3, §4, §5

[6] = tested on: KV4.3-TN/PK (KV4.3/277PK, T277P/N278K double mutant); assay: Whole-cell patch clamp, KV4.3-TN/PK (KV4.3/277PK) in CHO-K1 cells; assay type: cell-based, rat
Description: as §3, §4, §5

[7] = tested on: KV4.2/D281K mutant; assay: Whole-cell patch clamp, KV4.2/D281K (with hKChIP1) in CHO-K1 cells; assay type: cell-based, rat
Description: as §3, §4, §5

[8] = 10 μM κ-LhTx-1, two-pulse protocol, n = 5
[9] = 10 μM κ-LhTx-1, G-V, mean ± SEM, n = 5
[10] = 10 μM κ-LhTx-1, two-pulse protocol, mean ± SEM, n = 5
[11] = Va shift by 10 μM κ-LhTx-1 vs control, mean ± SEM
[12] = Vh shift by 10 μM κ-LhTx-1 vs control, mean ± SEM
[13] = 10 μM κ-LhTx-1, KV4.3-TN/PK, G-V, mean ± SEM, n = 5
[14] = 10 μM κ-LhTx-1, KV4.3-TN/PK, two-pulse protocol, mean ± SEM, n = 5
[15] = 10 μM κ-LhTx-1, G-V, mean ± SEM, n = 6
[16] = 10 μM κ-LhTx-1, two-pulse protocol, mean ± SEM, n = 6

## CC[C@H](C)[C@@H]1NC(=O)[C@H](CCC(N)=O)NC(=O)[C@@H]2CSSC[C@@H]3NC(=O)[C@H](CC(C)C)NC(=O)[C@H](CC(N)=O)NC(=O)[C@H](CCSC)NC(=O)[C@H](Cc4c[nH]c5ccccc45)NC(=O)[C@H](CO)NC(=O)[C@H](C)NC(=O)[C@@H](NC(=O)[C@H](CCC(=O)O)NC(=O)[C@H](CCC(N)=O)NC(=O)[C@H](C)NC(=O)[C@H](CC(=O)O)NC(=O)[C@@H](N)CCC(=O)O)CSSC[C@H](NC(=O)[C@H](CSSC[C@@H](C(=O)N[C@@H](CCCCN)C(=O)N[C@@H](Cc4ccc(O)cc4)C(=O)N[C@@H](CCCCN)C(=O)N[C@@H](CC(C)C)C(N)=O)NC(=O)[C@H](Cc4c[nH]c5ccccc45)NC1=O)NC(=O)[C@H](CCCCN)NC(=O)[C@H](CCCCN)NC(=O)[C@H](CCC(=O)O)NC(=O)CNC3=O)C(=O)N[C@@H](CCC(=O)O)C(=O)NCC(=O)N[C@@H](Cc1ccc(O)cc1)C(=O)N[C@@H](C(C)C)C(=O)N2 [κ-LhTx-1] (H-EDAQECASWMNLCGEKKCCEGYVCQIWCKYKL-NH2; disulfide 6-19, 13-24, 18-28 (inferred); N-terminus and C-terminus assumed)
[1]
  effect on currents: did not remarkably affect the currents
[2]
  effect on currents: did not remarkably affect the currents
[3]; 10 μM κ-LhTx-1, G-V, n = 5
  Va (steady-state activation): 58.61 ± 1.63 mV
  k, slope factor (steady-state activation): 19.00 ± 0.81 mV
[3]; [8]
  Vh (steady-state inactivation): -44.55 ± 2.07 mV
  k, slope factor (steady-state inactivation): 9.86 ± 1.33 mV
[3]; Va shift by 10 μM κ-LhTx-1 vs control
  ∆Va (steady-state activation): 61.44 ± 1.98 mV
[3]; Vh shift by 10 μM κ-LhTx-1 vs control
  ∆Vh (steady-state inactivation): 13.52 ± 2.24 mV
[3]; inhibition ratio at +100 mV, 10 μM
  inhi%(min): −2.82 ± 3.37%
[4]
  effect on currents: did not remarkably affect the currents
[5]; [9]
  Va (steady-state activation): 29.00 ± 0.52 mV
  k, slope factor (steady-state activation): 25.50 ± 0.51 mV
[5]; [10]
  Vh (steady-state inactivation): -56.22 ± 2.80 mV
  k, slope factor (steady-state inactivation): 5.95 ± 0.32 mV
[5]; 10 μM, +100 mV
  inhi%(min): approaching zero
[5]; [11]
  ∆Va (steady-state activation): 37.82 ± 2.83 mV
[5]; [12]
  ∆Vh (steady-state inactivation): 3.38 ± 3.15 mV
[6]; [13]
  Va (steady-state activation): 81.96 ± 2.27 mV
  k, slope factor (steady-state activation): 15.09 ± 1.14 mV
[6]; [14]
  Vh (steady-state inactivation): -25.43 ± 2.92 mV
  k, slope factor (steady-state inactivation): 15.31 ± 2.02 mV
[6]; KV4.3/277PK, 10 μM
  ∆Va and inhi%(min) vs KV4.1: not significantly different from those in KV4.1
[6]; Va shift by 10 μM κ-LhTx-1 vs control, KV4.3-TN/PK, mean ± SEM
  ∆Va (steady-state activation): 87.43 ± 2.99 mV
[6]; Vh shift by 10 μM κ-LhTx-1 vs control, KV4.3-TN/PK, mean ± SEM
  ∆Vh (steady-state inactivation): 26.29 ± 3.52 mV
[7]; [15]
  Va (steady-state activation): 61.96 ± 1.96 mV
  k, slope factor (steady-state activation): 18.73 ± 0.70 mV
[7]; [16]
  Vh (steady-state inactivation): -27.43 ± 2.53 mV
  k, slope factor (steady-state inactivation): 15.24 ± 1.42 mV
[7]; 10 μM, still greater than in KV4.1
  voltage-dependence of inhibition vs parental KV4.2: much less voltage-dependence
[7]; [11]
  ∆Va (steady-state activation): 68.10 ± 2.92 mV
[7]; [12]
  ∆Vh (steady-state inactivation): 33.23 ± 2.95 mV
